Like-named read-outs stand apart in the source and are kept apart here.
Experiments:
[1] = tested on: P. falciparum D10-ACP-GFP (MRA-568); test: SYBR Green I growth inhibition assay, D10-ACP-GFP; type: cell-based, Plasmodium falciparum; conditions: early-ring stage, 72 h exposure
Protocol: Fig. 1. […] (B) SYBR Green–based dose response assays were conducted on early-ring stage parasites (6 hours after invasion). […] 3D7 WT (blue), NF54 (green), drug-resistant strains Dd2 (red), HB3 (black), W2 (gray), and D10-ACP-GFP (purple) lines (Sigmoidal, 4PL, X is concentration, n ≥ 3, nonlinear regression, CI: 95%). (C) Schematic diagram of the development of P. falciparum after two consecutive erythrocytic cycles. The time points at which MED6-189 was introduced are depicted in green. HPS, hours post synchronization. […] The images depict various developmental stages of the parasite’s intraerythrocytic life cycle. […]
Fluorescence microscopy analyses were conducted using D10-ACP-GFP transgenic parasites, which express a fusion of the acyl carrier protein (ACP) with green fluorescent protein (GFP) in the parasite apicoplast ([25]). […]
(§1) Detailed information on materials and methods is available in the supplementary materials. […] P. knowlesi assays were quantitatively measured by flow cytometry using SYBR Green I and Mitrotracker Deep Red, as previously described ([84], [85]), on a Beckman Coulter CytoFLEX. […]
(§2) P. falciparum in vitro SYBR green fluorescence-based assays The anti-malarial activity of individual analogues were evaluated in-vitro against P. falciparum 3D7 (MRA-102, drug […]
green-I based fluorescence assay. […]

P. falciparum = conditions: several P. falciparum drug-sensitive and drug-resistant strains; earlier study; read-out: IC50 (median inhibitory concentration); cited from earlier work
[2] = tested on: P. falciparum Dd2 (MRA-156); test: SYBR Green I growth inhibition assay, Dd2; type: cell-based; conditions: Plasmodium falciparum
Protocol: Fig. 1. […] (B) SYBR Green–based dose response assays were conducted on early-ring stage parasites (6 hours after invasion). […] 3D7 WT (blue), NF54 (green), drug-resistant strains Dd2 (red), HB3 (black), W2 (gray), and D10-ACP-GFP (purple) lines (Sigmoidal, 4PL, X is concentration, n ≥ 3, nonlinear regression, CI: 95%). (C) Schematic diagram of the development of P. falciparum after two consecutive erythrocytic cycles. The time points at which MED6-189 was introduced are depicted in green. HPS, hours post synchronization. […] The images depict various developmental stages of the parasite’s intraerythrocytic life cycle. Bordered images represent time points when drug was first introduced (n = 3 biological replicates, P < 0.05).
as §1, §2
green-I based fluorescence assay. Parasite growth rate and stages of development were determined via microscopy through Giemsa-stained smears of the cultures. […]

In the case of `[C-]#[N+][C@]1(C)CC[C@H]2[C@@H]([C@@H](C(C)C)CC[C@]2(C)[N+]#[C-])[C@H]1O` [MED6-189], the IC50 ([1]; Plasmodium falciparum, D10, 72 h) is listed as 17 nM, the IC50 [1] is listed as 17.2 nM and the IC50 (P. falciparum) is listed as less than 50 nM. It also gave an IC50 ([2]; DD2, 72 h) of 0.047 ± 0.007 µM and an IC50 ([2]; DD2, read-out: IC50 (µM) P. falciparum (Dd2)) of 0.017 µM.

— paper PMC11793105, “A kalihinol analog disrupts apicoplast function and vesicular trafficking in P. falciparum malaria” (Science (New York, N.Y.), 2024)
